From patent US12065436B2, “Cardiac sarcomere inhibitors” (Cytokinetics, Inc., priority 2018, dated 2024) come the findings set out here.

This assay has as its target bovine cardiac myofibrils (full-length cardiac myosin ATPase in the native sarcomere) (Bos taurus (Bovine), UniProt Q9BE39). The experiment in a line: Skinned bovine cardiac myofibril ATPase assay (PK/LDH-coupled). The class given is biochemical. The conditions noted are these: Ca2+ activating to 75% of maximal rate; for CDMF75 IC15: concentration giving 15% inhibition; for IC50: read-out: CDMF75 IC50. The gist of the method:
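Inhibition of steady-state ATPase read at 340 nm through a PK/LDH-coupled NADH system (0.5 mM NADH, 1.5 mM PEP). Detergent-skinned bovine cardiac myofibrils, 1 mg/mL, were tested at pH 6.8 in PIPES/MgCl2 with 50 μM ATP and calcium adjusted to give pCa50 or pCa75 activation.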

In general, IC50 refers to the concentration at which inhibition is half-maximal.

bovine cardiac myofibrils (full-length cardiac myosin ATPase in the native sarcomere), sequence (Q9BE39 whole entry): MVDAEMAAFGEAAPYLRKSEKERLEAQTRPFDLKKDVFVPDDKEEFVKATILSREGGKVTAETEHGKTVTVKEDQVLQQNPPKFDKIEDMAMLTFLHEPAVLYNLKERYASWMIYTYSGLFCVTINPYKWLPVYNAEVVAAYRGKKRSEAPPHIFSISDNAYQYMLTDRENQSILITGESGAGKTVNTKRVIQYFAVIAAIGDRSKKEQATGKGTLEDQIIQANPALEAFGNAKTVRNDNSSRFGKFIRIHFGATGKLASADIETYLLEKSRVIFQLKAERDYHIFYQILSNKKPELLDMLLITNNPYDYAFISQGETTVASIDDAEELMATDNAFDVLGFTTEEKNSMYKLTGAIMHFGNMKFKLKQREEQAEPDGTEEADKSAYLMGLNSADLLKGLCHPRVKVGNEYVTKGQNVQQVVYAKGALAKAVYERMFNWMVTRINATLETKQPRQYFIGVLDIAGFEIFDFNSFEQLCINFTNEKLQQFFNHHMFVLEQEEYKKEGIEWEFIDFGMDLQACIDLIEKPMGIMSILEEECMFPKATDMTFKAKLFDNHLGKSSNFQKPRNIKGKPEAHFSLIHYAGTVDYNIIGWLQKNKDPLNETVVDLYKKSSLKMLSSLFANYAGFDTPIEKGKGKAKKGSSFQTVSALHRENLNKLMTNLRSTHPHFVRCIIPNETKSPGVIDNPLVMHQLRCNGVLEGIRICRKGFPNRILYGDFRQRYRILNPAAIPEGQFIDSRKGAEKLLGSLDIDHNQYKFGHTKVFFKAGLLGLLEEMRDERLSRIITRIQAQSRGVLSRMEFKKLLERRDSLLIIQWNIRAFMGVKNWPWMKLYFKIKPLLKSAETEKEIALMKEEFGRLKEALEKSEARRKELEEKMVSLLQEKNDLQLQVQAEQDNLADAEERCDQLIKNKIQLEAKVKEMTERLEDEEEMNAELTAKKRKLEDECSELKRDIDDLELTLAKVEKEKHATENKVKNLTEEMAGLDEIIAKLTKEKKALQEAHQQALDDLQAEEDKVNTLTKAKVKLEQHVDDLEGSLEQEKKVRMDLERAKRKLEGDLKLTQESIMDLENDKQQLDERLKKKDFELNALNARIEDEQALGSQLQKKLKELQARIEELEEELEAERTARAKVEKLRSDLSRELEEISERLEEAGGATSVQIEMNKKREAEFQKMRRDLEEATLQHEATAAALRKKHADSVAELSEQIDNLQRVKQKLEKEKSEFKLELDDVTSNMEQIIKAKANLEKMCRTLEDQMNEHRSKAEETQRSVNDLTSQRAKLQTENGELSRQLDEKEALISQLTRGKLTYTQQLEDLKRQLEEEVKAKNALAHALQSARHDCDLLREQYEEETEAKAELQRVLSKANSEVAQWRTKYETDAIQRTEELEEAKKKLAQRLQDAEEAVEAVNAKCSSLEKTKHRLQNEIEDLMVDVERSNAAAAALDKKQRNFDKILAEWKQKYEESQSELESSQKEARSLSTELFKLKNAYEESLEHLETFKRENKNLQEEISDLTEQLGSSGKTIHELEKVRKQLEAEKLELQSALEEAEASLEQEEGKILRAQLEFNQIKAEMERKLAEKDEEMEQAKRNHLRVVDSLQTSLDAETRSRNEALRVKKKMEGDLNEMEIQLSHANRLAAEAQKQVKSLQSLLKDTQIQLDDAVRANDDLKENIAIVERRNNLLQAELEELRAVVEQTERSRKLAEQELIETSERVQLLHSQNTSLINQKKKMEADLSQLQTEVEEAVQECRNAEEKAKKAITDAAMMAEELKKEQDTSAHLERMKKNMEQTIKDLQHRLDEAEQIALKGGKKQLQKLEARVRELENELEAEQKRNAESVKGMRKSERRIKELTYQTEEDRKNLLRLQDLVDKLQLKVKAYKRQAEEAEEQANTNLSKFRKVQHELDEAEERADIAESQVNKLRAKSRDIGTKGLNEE
bovine cardiac myofibrils (full-length cardiac myosin ATPase in the native sarcomere), sequence (P85100 whole entry partner): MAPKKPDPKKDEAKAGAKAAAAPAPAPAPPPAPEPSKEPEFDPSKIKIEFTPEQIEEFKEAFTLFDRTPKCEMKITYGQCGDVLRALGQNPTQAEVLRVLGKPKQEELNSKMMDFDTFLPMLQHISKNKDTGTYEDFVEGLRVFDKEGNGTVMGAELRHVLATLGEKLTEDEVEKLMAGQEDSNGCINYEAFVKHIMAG
bovine cardiac myofibrils (full-length cardiac myosin ATPase in the native sarcomere), sequence (Q3SZE5 whole entry partner): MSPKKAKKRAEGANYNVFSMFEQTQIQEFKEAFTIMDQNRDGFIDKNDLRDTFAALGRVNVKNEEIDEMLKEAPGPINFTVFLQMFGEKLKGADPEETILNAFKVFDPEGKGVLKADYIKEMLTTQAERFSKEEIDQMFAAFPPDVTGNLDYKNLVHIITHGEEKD

For `CCc1nc(-c2ccc3c(c2)CC[C@H]3NC(=O)c2cnn(CC(O)CO)c2)no1` (stereo partly drawn) [Compound 553, N-{(1R)-5-(5-ethyl(1,2,4-oxadiazol-3-yl))indanyl][1-(2,3-dihydroxypropyl)pyrazol-4-yl]carboxamide], the “CDMF75 IC15” value came out at 1.2 µM and the half-maximal inhibitory concentration (IC50) was determined as 5.1 µM.

Take `CC(=O)N1CC[C@@H]1C(=O)N[C@@H]1CCc2cc(-c3noc(C4CC4)n3)ccc21` [Compound 331, (R)-1-acetyl-N-((R)-5-(5-cyclopropyl-1,2,4-oxadiazol-3-yl)-2,3-dihydro-1H-inden-1-yl)azetidine-2-carboxamide]: the “CDMF75 IC15” value came out at 20.0 µM and the half-maximal inhibitory concentration (IC50) is greater than 39.2 µM.

On to `COCc1nc(-c2ccc3c(c2)CC[C@H]3NC(=O)c2cc(C(F)F)ccn2)no1` [Compound 733, (R)-4-(difluoromethyl)-N-(5-(5-(methoxymethyl)-1,2,4-oxadiazol-3-yl)-2,3-dihydro-1H-inden-1-yl)picolinamide], for which the “CDMF75 IC15” value stood at 1.5 µM and the IC50 turned out to be 8.9 µM.

For `CCc1nc(-c2ccc3c(c2)CC[C@H]3NC(=O)c2cnc(C)o2)no1` [Compound 385, (R)-N-(5-(5-ethyl-1,2,4-oxadiazol-3-yl)-2,3-dihydro-1H-inden-1-yl)-2-methyloxazole-5-carboxamide], the “CDMF75 IC15” value was found to be 0.5 µM and the half-maximal inhibitory concentration (IC50) is 1.7 µM.

On to `Cc1nc(-c2ccc3c(c2)CCC3NC(=O)c2cnc(C)n2C)no1` (stereo not shown) [Compound 45, 1,2-dimethyl-N-(5-(5-methyl-1,2,4-oxadiazol-3-yl)-2,3-dihydro-1H-inden-1-yl)-1H-imidazole-5-carboxamide], for which the “CDMF75 IC15” value was 2.1 µM and the IC50 amounted to 7.6 µM.

`Cn1nccc1C(=O)N[C@H]1COc2cc(-c3noc(C4CC4)n3)ccc21` [Compound 220, (R)-N-(6-(5-cyclopropyl-1,2,4-oxadiazol-3-yl)-2,3-dihydrobenzofuran-3-yl)-1-methyl-1H-pyrazole-5-carboxamide]: the “CDMF75 IC15” value was found to be 38.3 µM and the IC50 was greater than 39.2 µM.

For `CCc1nc(-c2ccc3c(c2)CC[C@H]3NC(=O)c2ccc(=O)n(CCOC)c2)no1` [Compound 606, (R)-N-(5-(5-ethyl-1,2,4-oxadiazol-3-yl)-2,3-dihydro-1H-inden-1-yl)-1-(2-methoxyethyl)-6-oxo-1,6-dihydropyridine-3-carboxamide], the “CDMF75 IC15” value was 4.6 µM and the IC50 stood at 22.6 µM.

Take `Cc1nc(-c2ccc3c(c2)OC[C@H]3NC(=O)c2cnn(C)c2C)no1` [Compound 163, (S)-1,5-dimethyl-N-(6-(5-methyl-1,2,4-oxadiazol-3-yl)-2,3-dihydrobenzofuran-3-yl)-1H-pyrazole-4-carboxamide]: the “CDMF75 IC15” value came out at 0.8 µM and the IC50 amounted to 3.1 µM.

As to `CCc1nc(-c2ccc3c(c2)CC[C@H]3NC(=O)c2cccc(C(=O)OC)c2)no1` [Compound 648, Methyl (R)-3-((5-(5-ethyl-1,2,4-oxadiazol-3-yl)-2,3-dihydro-1H-inden-1-yl)carbamoyl)benzoate], the “CDMF75 IC15” value was found to be 0.4 µM and the 50% inhibitory concentration (IC50) was 1.3 µM.

`Cc1noc(-c2ccc3c(c2)CC[C@H]3NC(=O)c2ccnn2C)n1` [Compound 204, (R)-1-methyl-N-(5-(3-methyl-1,2,4-oxadiazol-5-yl)-2,3-dihydro-1H-inden-1-yl)-1H-pyrazole-5-carboxamide]: the “CDMF75 IC15” value stood at 0.5 µM and the 50% inhibitory concentration (IC50) was 1.8 µM.

Regarding `Cc1noc(-c2ccc3c(c2)CC[C@H]3NC(=O)c2cnn(CCO)c2C)n1` [Compound 704, (R)-1-(2-hydroxyethyl)-5-methyl-N-(5-(3-methyl-1,2,4-oxadiazol-5-yl)-2,3-dihydro-1H-inden-1-yl)-1H-pyrazole-4-carboxamide], the “CDMF75 IC15” value came to 2.6 µM and the IC50 is 11.4 µM.

As to `Cc1nn(C)cc1C(=O)NC1CCc2cc(-c3noc(C4CC4)n3)ccc21` (stereo not shown) [Compound 73, N-(5-(5-cyclopropyl-1,2,4-oxadiazol-3-yl)-2,3-dihydro-1H-inden-1-yl)-1,3-dimethyl-1H-pyrazole-4-carboxamide], the “CDMF75 IC15” value worked out at 0.7 µM and the IC50 amounted to 2.5 µM.

Regarding `CCc1nc(-c2ccc3c(c2)CC[C@H]3NC(=O)c2ncco2)no1` [Compound 593, (R)-N-(5-(5-ethyl-1,2,4-oxadiazol-3-yl)-2,3-dihydro-1H-inden-1-yl)oxazole-2-carboxamide], the “CDMF75 IC15” value is 0.5 µM and the IC50 is 2.1 µM.

With `CCc1nc(-c2ccc3c(c2)CC[C@H]3NC(=O)c2ccnc(Cl)c2)no1` [Compound 647, (R)-2-chloro-N-(5-(5-ethyl-1,2,4-oxadiazol-3-yl)-2,3-dihydro-1H-inden-1-yl)isonicotinamide], the “CDMF75 IC15” value was 0.3 µM and the half-maximal inhibitory concentration (IC50) was found to be 0.9 µM.

On to `Cc1cc(C(=O)NC2CCc3cc(-c4cc(C(F)F)on4)ccc32)ccn1` (stereo not shown) [Compound 168, N-(5-(5-(difluoromethyl)isoxazol-3-yl)-2,3-dihydro-1H-inden-1-yl)-2-methylisonicotinamide], for which the “CDMF75 IC15” value was found to be 1.1 µM and the half-maximal inhibitory concentration (IC50) stood at 3.8 µM.

In the case of `Cn1nccc1C(=O)N[C@@H]1CCc2cc(-c3nc(C4CC4)no3)ccc21` [Compound 261, (R)—N-(5-(3-cyclopropyl-1,2,4-oxadiazol-5-yl)-2,3-dihydro-1H-inden-1-yl)-1-methyl-1H-pyrazole-5-carboxamide], the “CDMF75 IC15” value amounted to 0.4 µM and the IC50 was 1.2 µM.

With `CCc1nc(-c2ccc3c(c2)CC[C@H]3NC(=O)c2cccc(C(O)CO)c2)no1` (stereo partly drawn) [Compound 700, 3-(1,2-dihydroxyethyl)-N-((R)-5-(5-ethyl-1,2,4-oxadiazol-3-yl)-2,3-dihydro-1H-inden-1-yl)benzamide], the “CDMF75 IC15” value came to 0.7 µM and the IC50 stood at 2.6 µM.

`CCc1nc(-c2ccc3c(c2)CCC[C@@H]3NC(=O)c2cnn(C)c2)no1` [Compound 516, (S)-N-(6-(5-ethyl-1,2,4-oxadiazol-3-yl)-1,2,3,4-tetrahydronaphthalen-1-yl)-1-methyl-1H-pyrazole-4-carboxamide]: the “CDMF75 IC15” value was found to be 39.2 µM and the IC50 was 39.2 µM.

Consider `COCCn1cc(C(=O)N[C@@H]2CCc3cc(-c4noc(C(C)C)n4)ccc32)cn1` [Compound 511, (R)-N-(5-(5-isopropyl-1,2,4-oxadiazol-3-yl)-2,3-dihydro-1H-inden-1-yl)-1-(2-methoxyethyl)-1H-pyrazole-4-carboxamide], for which the “CDMF75 IC15” value was determined as 3.0 µM and the IC50 turned out to be 14 µM.

Take `CC(C)COC(=O)N[C@@H]1CCc2cc(-c3noc(C(F)F)n3)ccc21` [Compound 280, isobutyl (R)-(5-(5-(difluoromethyl)-1,2,4-oxadiazol-3-yl)-2,3-dihydro-1H-inden-1-yl)carbamate]: the “CDMF75 IC15” value was 0.7 µM and the half-maximal inhibitory concentration (IC50) worked out at 2.7 µM.

Consider `Cc1nc(C)c(C(=O)NC2COc3cc(-c4noc(C(F)F)n4)ccc32)o1` (stereo not shown) [Compound 192, N-(6-(5-(difluoromethyl)-1,2,4-oxadiazol-3-yl)-2,3-dihydrobenzofuran-3-yl)-2,4-dimethyloxazole-5-carboxamide], for which the “CDMF75 IC15” value worked out at 1.0 µM and the IC50 amounted to 3.8 µM.

With `COC(=O)N[C@@H]1CCc2cc(-c3noc(C)n3)ccc21` [Compound 303, methyl (R)-(5-(5-methyl-1,2,4-oxadiazol-3-yl)-2,3-dihydro-1H-inden-1-yl)carbamate], the “CDMF75 IC15” value came to 0.6 µM and the IC50 was found to be 2.7 µM.

For the compound `O=C(NC1CCCC1)N[C@@H]1CCc2cc(-c3noc(C(F)F)n3)ccc21` [Compound 298, (R)-1-cyclopentyl-3-(5-(5-(difluoromethyl)-1,2,4-oxadiazol-3-yl)-2,3-dihydro-1H-inden-1-yl)urea], the “CDMF75 IC15” value came out at 39.2 µM and the half-inhibitory concentration (IC50) is greater than 39.2 µM.

Consider `CCc1nc(-c2ccc3c(c2)CC[C@H]3NC(=O)c2cnnc(C)c2)no1` [Compound 650, (R)-N-(5-(5-ethyl-1,2,4-oxadiazol-3-yl)-2,3-dihydro-1H-inden-1-yl)-6-methylpyridazine-4-carboxamide], for which the “CDMF75 IC15” value was 0.6 µM and the IC50 amounted to 2.2 µM.

Consider `O=C(N[C@@H]1CCc2cc(-c3noc(C(F)F)n3)ccc21)OC1CNC1` [Compound 291, azetidin-3-yl (R)-(5-(5-(difluoromethyl)-1,2,4-oxadiazol-3-yl)-2,3-dihydro-1H-inden-1-yl)carbamate], for which the “CDMF75 IC15” value is 17.3 µM and the concentration for half-maximal inhibition (IC50) was greater than 39.2 µM.

Turning to `CCc1cc(-c2ccc3c(c2)CC[C@H]3NC(=O)c2ccnn2C)no1` [Compound 414, (R)—N-(5-(5-ethylisoxazol-3-yl)-2,3-dihydro-1H-inden-1-yl)-1-methyl-1H-pyrazole-5-carboxamide], the “CDMF75 IC15” value worked out at 0.2 µM and the 50% inhibitory concentration (IC50) was determined as 0.6 µM.

With `Cc1nc(-c2ccc3c(c2)CCC3NC(=O)c2ncn(C)n2)no1` (stereo not shown) [Compound 119, 1-methyl-N-(5-(5-methyl-1,2,4-oxadiazol-3-yl)-2,3-dihydro-1H-inden-1-yl)-1H-1,2,4-triazole-3-carboxamide], the “CDMF75 IC15” value was 39.2 µM and the half-inhibitory concentration (IC50) is greater than 39.2 µM.

In the case of `Cc1cc(C(=O)N[C@@H]2CCc3cc(-c4ncc(C)o4)ccc32)ccn1` [Compound 139, (R)-2-methyl-N-(5-(5-methyloxazol-2-yl)-2,3-dihydro-1H-inden-1-yl)isonicotinamide], the “CDMF75 IC15” value stood at 3.6 µM and the IC50 came to 17.3 µM.

For the compound `CCc1nc(-c2ccc3c(c2)CC[C@H]3NC(=O)C(F)F)no1` [Compound 436, (R)-N-(5-(5-ethyl-1,2,4-oxadiazol-3-yl)-2,3-dihydro-1H-inden-1-yl)-2,2-difluoroacetamide], the “CDMF75 IC15” value was found to be 0.6 µM and the half-maximal inhibitory concentration (IC50) is 2.1 µM.
